Assay results as given in PubChem BioAssay (NCI).
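Where inhibition never reached the appropriate level, the endpoint shown equals the highest concentration tested. Otherwise, values were interpolated linearly from a five-concentration, 48-hour dose response in 96-well plates. TGI: concentration producing complete growth inhibition.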

Assays:
Assay in all cases: DTP human tumour cell line panel, 48 h
786-0 renal = test system: 786-0 renal
A549 NSCLC = test system: A549 NSCLC
ACHN renal = test system: ACHN renal
CAKI-1 renal = test system: CAKI-1 renal
CCRF-CEM leukemia = test system: CCRF-CEM leukemia
COLO 205 colon = test system: COLO 205 colon
DLD-1 colon = test system: DLD-1 colon
DMS 114 small cell lung = test system: DMS 114 small cell lung
DMS 273 small cell lung = test system: DMS 273 small cell lung
HCT-116 colon = test system: HCT-116 colon
HCT-15 colon = test system: HCT-15 colon
HL-60(TB) leukemia = test system: HL-60(TB) leukemia
HOP-18 NSCLC = test system: HOP-18 NSCLC
HOP-62 NSCLC = test system: HOP-62 NSCLC
HOP-92 NSCLC = test system: HOP-92 NSCLC
HT29 colon = test system: HT29 colon
IGROV1 ovarian = test system: IGROV1 ovarian
K-562 leukemia = test system: K-562 leukemia
KM12 colon = test system: KM12 colon
KM20L2 colon = test system: KM20L2 colon
LOX IMVI melanoma = test system: LOX IMVI melanoma
LXFL 529 NSCLC = test system: LXFL 529 NSCLC
M14 melanoma = test system: M14 melanoma
M19-MEL melanoma = test system: M19-MEL melanoma
MALME-3M melanoma = test system: MALME-3M melanoma
MOLT-4 leukemia = test system: MOLT-4 leukemia
NCI-H226 lung = test system: NCI-H226 lung
NCI-H23 lung = test system: NCI-H23 lung
NCI-H460 lung = test system: NCI-H460 lung
NCI-H522 lung = test system: NCI-H522 lung
OVCAR-3 ovarian = test system: OVCAR-3 ovarian
OVCAR-4 ovarian = test system: OVCAR-4 ovarian
OVCAR-5 ovarian = test system: OVCAR-5 ovarian
OVCAR-8 ovarian = test system: OVCAR-8 ovarian
RPMI-8226 leukemia = test system: RPMI-8226 leukemia
RXF 393 renal = test system: RXF 393 renal
SF-268 CNS = test system: SF-268 CNS
SF-295 CNS = test system: SF-295 CNS
SF-539 CNS = test system: SF-539 CNS
SK-MEL-2 melanoma = test system: SK-MEL-2 melanoma
SK-MEL-28 melanoma = test system: SK-MEL-28 melanoma
SK-MEL-5 melanoma = test system: SK-MEL-5 melanoma
SK-OV-3 ovarian = test system: SK-OV-3 ovarian
SN12C renal = test system: SN12C renal
SNB-75 CNS = test system: SNB-75 CNS
SNB-78 CNS = test system: SNB-78 CNS
SR leukemia = test system: SR leukemia
SW-620 colon = test system: SW-620 colon
TK-10 renal = test system: TK-10 renal
U251 CNS = test system: U251 CNS
UACC-257 melanoma = test system: UACC-257 melanoma
UACC-62 melanoma = test system: UACC-62 melanoma
UO-31 renal = test system: UO-31 renal
A498 renal = test system: A498 renal
HCC-2998 colon = test system: HCC-2998 colon
SNB-19 CNS = test system: SNB-19 CNS
EKVX NSCLC = test system: EKVX NSCLC
XF 498 CNS = test system: XF 498 CNS

## Cc1cc(=O)[nH]c(NNC(C#N)c2ccco2)n1 (configuration not stated)
786-0 renal
  TGI: > 100 µM
A549 NSCLC
  TGI: > 100 µM
ACHN renal
  TGI: > 100 µM
CAKI-1 renal
  TGI: > 100 µM
CCRF-CEM leukemia
  TGI: > 100 µM
COLO 205 colon
  TGI: > 100 µM
DLD-1 colon
  TGI: > 100 µM
DMS 114 small cell lung
  TGI: > 100 µM
DMS 273 small cell lung
  TGI: > 100 µM
HCT-116 colon
  TGI: > 100 µM
HCT-15 colon
  TGI: > 100 µM
HL-60(TB) leukemia
  TGI: > 100 µM
HOP-18 NSCLC
  TGI: > 100 µM
HOP-62 NSCLC
  TGI: > 100 µM
HOP-92 NSCLC
  TGI: > 100 µM
HT29 colon
  TGI: > 100 µM
IGROV1 ovarian
  TGI: > 100 µM
K-562 leukemia
  TGI: > 100 µM
KM12 colon
  TGI: > 100 µM
KM20L2 colon
  TGI: > 100 µM
LOX IMVI melanoma
  TGI: > 100 µM
LXFL 529 NSCLC
  TGI: > 100 µM
M14 melanoma
  TGI: > 100 µM
M19-MEL melanoma
  TGI: > 100 µM
MALME-3M melanoma
  TGI: > 100 µM
MOLT-4 leukemia
  TGI: > 100 µM
NCI-H226 lung
  TGI: > 100 µM
NCI-H23 lung
  TGI: > 100 µM
NCI-H460 lung
  TGI: > 100 µM
NCI-H522 lung
  TGI: > 100 µM
OVCAR-3 ovarian
  TGI: > 100 µM
OVCAR-4 ovarian
  TGI: > 100 µM
OVCAR-5 ovarian
  TGI: > 100 µM
OVCAR-8 ovarian
  TGI: > 100 µM
RPMI-8226 leukemia
  TGI: > 100 µM
RXF 393 renal
  TGI: > 100 µM
SF-268 CNS
  TGI: > 100 µM
SF-295 CNS
  TGI: > 100 µM
SF-539 CNS
  TGI: > 100 µM
SK-MEL-2 melanoma
  TGI: > 100 µM
SK-MEL-28 melanoma
  TGI: > 100 µM
SK-MEL-5 melanoma
  TGI: > 100 µM
SK-OV-3 ovarian
  TGI: > 100 µM
SN12C renal
  TGI: > 100 µM
SNB-75 CNS
  TGI: > 100 µM
SNB-78 CNS
  TGI: > 100 µM
SR leukemia
  TGI: > 100 µM
SW-620 colon
  TGI: > 100 µM
TK-10 renal
  TGI: > 100 µM
U251 CNS
  TGI: > 100 µM
UACC-257 melanoma
  TGI: > 100 µM
UACC-62 melanoma
  TGI: > 100 µM
UO-31 renal
  TGI: > 100 µM

## CCN(CC)CCCCC1CCN(CC(=O)N2c3cc(Cl)ccc3NC(=O)CC2C)CC1 (configuration not stated)
786-0 renal
  TGI: > 100 µM
A498 renal
  TGI: > 100 µM
A549 NSCLC
  TGI: > 100 µM
ACHN renal
  TGI: > 100 µM
CAKI-1 renal
  TGI: > 100 µM
CCRF-CEM leukemia
  TGI: > 100 µM
COLO 205 colon
  TGI: > 100 µM
DLD-1 colon
  TGI: > 100 µM
DMS 273 small cell lung
  TGI: > 100 µM
HCC-2998 colon
  TGI: > 100 µM
HCT-116 colon
  TGI: > 100 µM
HCT-15 colon
  TGI: > 100 µM
HL-60(TB) leukemia
  TGI: > 100 µM
HOP-18 NSCLC
  TGI: > 100 µM
HOP-62 NSCLC
  TGI: > 100 µM
HOP-92 NSCLC
  TGI: > 100 µM
HT29 colon
  TGI: > 100 µM
IGROV1 ovarian
  TGI: > 100 µM
K-562 leukemia
  TGI: > 100 µM
KM20L2 colon
  TGI: > 100 µM
LOX IMVI melanoma
  TGI: > 100 µM
LXFL 529 NSCLC
  TGI: > 100 µM
M14 melanoma
  TGI: > 100 µM
M19-MEL melanoma
  TGI: > 100 µM
MALME-3M melanoma
  TGI: > 100 µM
MOLT-4 leukemia
  TGI: > 100 µM
NCI-H226 lung
  TGI: > 100 µM
NCI-H23 lung
  TGI: > 100 µM
NCI-H460 lung
  TGI: > 100 µM
OVCAR-3 ovarian
  TGI: > 100 µM
OVCAR-4 ovarian
  TGI: > 100 µM
OVCAR-5 ovarian
  TGI: > 100 µM
RPMI-8226 leukemia
  TGI: > 100 µM
SF-268 CNS
  TGI: > 100 µM
SF-295 CNS
  TGI: > 100 µM
SK-MEL-28 melanoma
  TGI: > 100 µM
SK-MEL-5 melanoma
  TGI: > 100 µM
SK-OV-3 ovarian
  TGI: > 100 µM
SN12C renal
  TGI: > 100 µM
SNB-19 CNS
  TGI: > 100 µM
SR leukemia
  TGI: > 100 µM
SW-620 colon
  TGI: > 100 µM
U251 CNS
  TGI: > 100 µM
UACC-257 melanoma
  TGI: > 100 µM
UACC-62 melanoma
  TGI: > 100 µM
UO-31 renal
  TGI: > 100 µM

## FC(F)(F)c1cccc(C2SCc3nc4ccccc4n32)c1 (configuration not stated)
786-0 renal
  TGI: > 100 µM
A549 NSCLC
  TGI: > 100 µM
ACHN renal
  TGI: > 100 µM
CAKI-1 renal
  TGI: > 100 µM
CCRF-CEM leukemia
  TGI: > 100 µM
COLO 205 colon
  TGI: > 100 µM
DLD-1 colon
  TGI: > 100 µM
DMS 114 small cell lung
  TGI: > 100 µM
DMS 273 small cell lung
  TGI: > 100 µM
EKVX NSCLC
  TGI: > 100 µM
HCC-2998 colon
  TGI: > 100 µM
HCT-116 colon
  TGI: > 100 µM
HL-60(TB) leukemia
  TGI: > 100 µM
HOP-92 NSCLC
  TGI: 32.2 µM
HT29 colon
  TGI: > 100 µM
IGROV1 ovarian
  TGI: > 100 µM
K-562 leukemia
  TGI: > 100 µM
KM12 colon
  TGI: > 100 µM
LXFL 529 NSCLC
  TGI: > 100 µM
M19-MEL melanoma
  TGI: > 100 µM
MALME-3M melanoma
  TGI: > 100 µM
MOLT-4 leukemia
  TGI: > 100 µM
NCI-H226 lung
  TGI: > 100 µM
NCI-H23 lung
  TGI: > 100 µM
NCI-H522 lung
  TGI: > 100 µM
OVCAR-3 ovarian
  TGI: > 100 µM
OVCAR-5 ovarian
  TGI: > 100 µM
OVCAR-8 ovarian
  TGI: > 100 µM
RPMI-8226 leukemia
  TGI: > 100 µM
RXF 393 renal
  TGI: > 100 µM
SF-268 CNS
  TGI: > 100 µM
SF-295 CNS
  TGI: > 100 µM
SF-539 CNS
  TGI: > 100 µM
SK-MEL-2 melanoma
  TGI: > 100 µM
SK-MEL-28 melanoma
  TGI: > 100 µM
SK-MEL-5 melanoma
  TGI: > 100 µM
SK-OV-3 ovarian
  TGI: 89.1 µM
SN12C renal
  TGI: > 100 µM
SNB-19 CNS
  TGI: > 100 µM
SNB-75 CNS
  TGI: > 100 µM
SNB-78 CNS
  TGI: > 100 µM
SR leukemia
  TGI: > 100 µM
SW-620 colon
  TGI: > 100 µM
TK-10 renal
  TGI: > 100 µM
U251 CNS
  TGI: > 100 µM
UACC-257 melanoma
  TGI: > 100 µM
UACC-62 melanoma
  TGI: > 100 µM
UO-31 renal
  TGI: > 100 µM

## COc1cc(Nc2nc3cc(C(F)(F)F)ccc3nc2C)cc(OC)c1OC
786-0 renal
  TGI: 24.8 µM
A498 renal
  TGI: 18.8 µM
ACHN renal
  TGI: 20.8 µM
CAKI-1 renal
  TGI: 20.8 µM
CCRF-CEM leukemia
  TGI: 24.3 µM
COLO 205 colon
  TGI: 25.3 µM
DMS 114 small cell lung
  TGI: 23.8 µM
DMS 273 small cell lung
  TGI: 30 µM
EKVX NSCLC
  TGI: 30.6 µM
HCC-2998 colon
  TGI: 12.6 µM
HCT-116 colon
  TGI: 21.1 µM
HCT-15 colon
  TGI: 12.2 µM
HOP-62 NSCLC
  TGI: 30.6 µM
HOP-92 NSCLC
  TGI: 0.95 µM
HT29 colon
  TGI: 13 µM
IGROV1 ovarian
  TGI: 32 µM
K-562 leukemia
  TGI: 20.1 µM
KM12 colon
  TGI: 21.5 µM
LOX IMVI melanoma
  TGI: 10.9 µM
LXFL 529 NSCLC
  TGI: 21.7 µM
M14 melanoma
  TGI: 21.3 µM
MALME-3M melanoma
  TGI: 26.6 µM
MOLT-4 leukemia
  TGI: 31 µM
NCI-H226 lung
  TGI: 22.8 µM
NCI-H23 lung
  TGI: 23.2 µM
NCI-H460 lung
  TGI: 17.7 µM
NCI-H522 lung
  TGI: 25 µM
OVCAR-3 ovarian
  TGI: 30.9 µM
OVCAR-4 ovarian
  TGI: 34 µM
OVCAR-5 ovarian
  TGI: 26.7 µM
OVCAR-8 ovarian
  TGI: 24.5 µM
RXF 393 renal
  TGI: 17.9 µM
SF-268 CNS
  TGI: 33.5 µM
SF-295 CNS
  TGI: 4.91 µM
SF-539 CNS
  TGI: 25.4 µM
SK-MEL-2 melanoma
  TGI: 23.6 µM
SK-MEL-28 melanoma
  TGI: 25.3 µM
SK-MEL-5 melanoma
  TGI: 25.2 µM
SK-OV-3 ovarian
  TGI: 30.5 µM
SN12C renal
  TGI: 23 µM
SNB-75 CNS
  TGI: 39 µM
SNB-78 CNS
  TGI: 25.9 µM
SR leukemia
  TGI: 30.3 µM
SW-620 colon
  TGI: 26.6 µM
TK-10 renal
  TGI: 23.3 µM
U251 CNS
  TGI: 22.4 µM
UACC-257 melanoma
  TGI: 21.4 µM
UACC-62 melanoma
  TGI: 13.3 µM
UO-31 renal
  TGI: 12.6 µM
XF 498 CNS
  TGI: 8.77 µM
